Experiments:
FHC = experiment: MTT cytotoxicity assay, normal FHC cells; conditions: Homo sapiens, 48 h, read-out: IC50 FHC
Method: (§1) MTT assay was used to determine the cytotoxic activity of target compounds against different cell lines. […] Then, the cells were treated with five doses of test compounds (pre-dissolved in DMSO), and 0.1% DMSO was used as a negative control. […] The results expressed as IC50 were the average of three determinations calculated by using the Bacus Laboratories Incorporated Slide Scanner (Bliss) software.

MKN-45 = experiment: MTT antiproliferative assay, MKN-45; conditions: Homo sapiens, MKN-45, 48 h, read-out: IC50 MKN-45
Method: as §1

MDA-MB-231 = experiment: MTT antiproliferative assay, MDA-MB-231; conditions: Homo sapiens, MDA-MB-231, 48 h, read-out: IC50 MDA-MB-231
Method: as §1

c-Met = target: T1, c-Met (Homo sapiens, UniProt P08581); experiment: In vitro c-Met enzymatic assay (HTRF); assay type: biochemical; conditions: for IC50: HTRF assay, mean ± SD, triplicate, read-out: IC50 against c-Met; for fold loss of c-Met inhibitory activity compared to 51w: ratio of c-Met IC50 to that of 51w
T1 construct: purchased Invitrogen (Waltham, MA)
Method: Inhibition of target compounds on c-Met kinase activity was measured by using the homogeneous time-resolved fluorescence (HTRF) assay.
The tyrosine kinases inhibitory activities of target compounds were evaluated in 384-well microtiter plates using purified kinases purchased from Invitrogen (Waltham, MA) by homogeneous time-resolved fluorescence (HTRF) assay. The HTRF KinEASE TK kit was performed according to the instructions. After the kinases and test compounds were incubated at 25–30 °C for 5 min, the kinase reactions were initiated by addition of 39 μL of kinase reaction buffer solution and incubated at 25–30 °C for 30 min. The reactions were quenched by addition 10 µL mixed detection solution. […] The inhibition rate (%) was calculated using the following equation: inhibition rate = [(activity of enzyme with tested compound – min)/(max – min)] × 100 (max: the enzyme activity in the presence of enzyme, substrates and cofactors; min: the enzyme activity in the presence of substrates, cofactors and in the absence of enzyme). IC50 value was calculated from the inhibition curve using GraphPad Prism 5.0 software (La Jolla, CA).

HT-29 = experiment: MTT antiproliferative assay, HT-29; conditions: Homo sapiens, HT-29, 48 h, read-out: IC50 HT-29
Method: as §1

A549 = experiment: MTT antiproliferative assay, A549; conditions: Homo sapiens, A549, 48 h, read-out: IC50 A549
Method: as §1

HUVEC = experiment: MTT cytotoxicity assay, normal HUVEC cells; conditions: Homo sapiens, 48 h, read-out: IC50 HUVEC
Method: as §1

T1 sequence (P08581 25-1390): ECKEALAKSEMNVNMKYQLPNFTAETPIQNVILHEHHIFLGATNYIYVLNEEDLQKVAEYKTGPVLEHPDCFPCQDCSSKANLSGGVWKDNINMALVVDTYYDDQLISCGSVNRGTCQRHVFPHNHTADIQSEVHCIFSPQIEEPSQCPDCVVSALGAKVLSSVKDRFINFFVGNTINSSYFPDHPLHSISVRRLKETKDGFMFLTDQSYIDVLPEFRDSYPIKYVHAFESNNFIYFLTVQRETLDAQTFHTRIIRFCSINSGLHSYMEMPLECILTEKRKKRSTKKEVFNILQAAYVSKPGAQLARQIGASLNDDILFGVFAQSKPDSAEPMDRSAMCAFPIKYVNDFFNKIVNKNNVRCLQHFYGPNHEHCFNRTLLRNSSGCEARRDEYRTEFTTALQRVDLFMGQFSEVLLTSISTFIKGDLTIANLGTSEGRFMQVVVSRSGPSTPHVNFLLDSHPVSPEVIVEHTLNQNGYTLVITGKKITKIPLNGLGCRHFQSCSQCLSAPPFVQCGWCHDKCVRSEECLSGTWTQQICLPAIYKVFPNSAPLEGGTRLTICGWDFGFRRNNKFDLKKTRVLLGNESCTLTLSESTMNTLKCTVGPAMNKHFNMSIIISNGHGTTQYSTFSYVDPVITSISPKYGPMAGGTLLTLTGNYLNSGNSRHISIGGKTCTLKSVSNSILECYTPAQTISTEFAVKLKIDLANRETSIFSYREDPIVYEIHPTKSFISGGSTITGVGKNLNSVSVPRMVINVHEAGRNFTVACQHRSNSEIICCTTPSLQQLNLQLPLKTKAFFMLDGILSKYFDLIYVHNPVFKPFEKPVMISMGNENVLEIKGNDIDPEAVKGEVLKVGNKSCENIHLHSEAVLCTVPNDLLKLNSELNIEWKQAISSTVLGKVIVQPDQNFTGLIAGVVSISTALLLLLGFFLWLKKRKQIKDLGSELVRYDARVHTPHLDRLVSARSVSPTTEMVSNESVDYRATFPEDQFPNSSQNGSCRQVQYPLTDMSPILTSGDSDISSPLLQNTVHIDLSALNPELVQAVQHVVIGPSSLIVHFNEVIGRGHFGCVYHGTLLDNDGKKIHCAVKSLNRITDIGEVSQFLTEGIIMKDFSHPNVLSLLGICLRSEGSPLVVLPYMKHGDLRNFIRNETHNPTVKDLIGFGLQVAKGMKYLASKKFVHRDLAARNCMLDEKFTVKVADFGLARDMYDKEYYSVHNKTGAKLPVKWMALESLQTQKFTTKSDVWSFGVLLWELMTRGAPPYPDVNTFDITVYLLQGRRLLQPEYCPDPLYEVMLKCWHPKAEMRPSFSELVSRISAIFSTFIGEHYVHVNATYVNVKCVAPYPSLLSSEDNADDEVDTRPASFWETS

## O=C(Nc1ccc(Oc2ccnc(Cl)c2)c(F)c1)c1nc(-c2ccc(Cl)c(Cl)c2)cs1 [Compound 51ah, N-(4-((2-Chloropyridin-4-yl)oxy)-3-fluorophenyl)-4-(3,4-dichlorophenyl)thiazole-2-carboxamide]
other
  melting point: 195 to 197 °C
FHC
  IC50: 20.4 ± 1.86 µM
MKN-45
  IC50: 0.53 ± 0.42 µM
MDA-MB-231
  IC50: 7.29 ± 1.22 µM
c-Met
  IC50: 9.26 ± 1.34 nM
HT-29
  IC50: 2.78 ± 0.49 µM
A549
  IC50: 3.17 ± 0.51 µM
HUVEC
  IC50: 12.4 ± 0.85 µM

## COc1cc2nccc(Oc3ccc(NC(=O)c4nc(-c5ccc(F)cc5)ns4)cc3)c2cc1OC [Compound 51b, N-(4-((6,7-Dimethoxyquinolin-4-yl)oxy)phenyl)-3-(4-fluorophenyl)-1,2,4-thiadiazole-5-carboxamide]
other
  melting point: 113 to 115 °C
FHC
  IC50: > 100 µM
MKN-45
  IC50: 7.89 ± 1.35 µM
MDA-MB-231
  IC50: 38.6 ± 4.07 µM
c-Met
  IC50: 50.1 ± 5.14 nM
HT-29
  IC50: 26.5 ± 1.42 µM
A549
  IC50: 22.5 ± 3.15 µM
HUVEC
  IC50: > 100 µM

## O=C(Nc1ccc(Oc2ccnc3ccsc23)c(F)c1)c1nc(-c2ccccc2)cs1 [Compound 51q, N-(3-Fluoro-4-(thieno[3,2-b]pyridin-7-yloxy)phenyl)-4-phenylthiazole-2-carboxamide]
other
  melting point: 251 to 253 °C
FHC
  IC50: 80.6 ± 4.52 µM
MKN-45
  IC50: 5.95 ± 0.63 µM
MDA-MB-231
  IC50: 32.5 ± 2.68 µM
c-Met
  IC50: 38.5 ± 4.23 nM
HT-29
  IC50: 19.4 ± 2.48 µM
A549
  IC50: 12.9 ± 1.82 µM
HUVEC
  IC50: 69.5 ± 2.68 µM

## O=C(Nc1ccc(Oc2ccnc(Cl)c2)c(F)c1)c1nc(-c2ccc(Br)cc2)cs1 [Compound 51af, 4-(4-Bromophenyl)-N-(4-((2-chloropyridin-4-yl)oxy)-3-fluorophenyl)thiazole-2-carboxamide]
other
  melting point: 192 to 194 °C
FHC
  IC50: 21.6 ± 2.82 µM
MKN-45
  IC50: 2.06 ± 0.45 µM
MDA-MB-231
  IC50: 20.5 ± 3.65 µM
c-Met
  IC50: 19.2 ± 1.44 nM
HT-29
  IC50: 11.7 ± 1.63 µM
A549
  IC50: 8.23 ± 1.42 µM
HUVEC
  IC50: 11.5 ± 0.83 µM

## O=C(Nc1ccc(Oc2ccnc(Cl)c2)c(F)c1)c1nc(-c2cccs2)cs1 [Compound 51aj, N-(4-((2-chloropyridin-4-yl)oxy)-3-fluorophenyl)-4-(thiophen-2-yl)thiazole-2-carboxamide]
other
  melting point: 184 to 186 °C
FHC
  IC50: > 100 µM
MKN-45
  IC50: 4.55 ± 0.91 µM
MDA-MB-231
  IC50: 25.9 ± 3.41 µM
c-Met
  IC50: 49.5 ± 5.36 nM
  fold loss of c-Met inhibitory activity compared to 51w: 2.1 fold
HT-29
  IC50: 17.5 ± 2.44 µM
A549
  IC50: 11.5 ± 2.17 µM
HUVEC
  IC50: 52.3 ± 3.74 µM

## COc1cc2nccc(Oc3ccc(NC(=O)c4nnc(-c5ccc(F)cc5)s4)cc3)c2cc1OC [Compound 51d, N-(4-((6,7-Dimethoxyquinolin-4-yl)oxy)phenyl)-5-(4-fluorophenyl)-1,3,4-thiadiazole-2-carboxamide]
other
  melting point: 136 to 138 °C
FHC
  IC50: 68.6 ± 4.83 µM
MKN-45
  IC50: 6.65 ± 0.94 µM
MDA-MB-231
  IC50: 33.6 ± 4.35 µM
c-Met
  IC50: 41.5 ± 2.76 nM
HT-29
  IC50: 24.6 ± 1.87 µM
A549
  IC50: 19 ± 2.46 µM
HUVEC
  IC50: 52.4 ± 3.85 µM

## O=C(Nc1ccc(Oc2ccnc(Cl)c2)c(F)c1)c1nc(-c2ccc(Cl)cc2)cs1 [Compound 51ad, 4-(4-Chlorophenyl)-N-(4-((2-chloropyridin-4-yl)oxy)-3-fluorophenyl)thiazole-2-carboxamide]
other
  melting point: 167 to 169 °C
FHC
  IC50: 26.5 ± 1.28 µM
MKN-45
  IC50: 1.74 ± 0.23 µM
MDA-MB-231
  IC50: 15.2 ± 1.46 µM
c-Met
  IC50: 17.8 ± 1.82 nM
HT-29
  IC50: 8.04 ± 0.93 µM
A549
  IC50: 6.75 ± 0.55 µM
HUVEC
  IC50: 18.5 ± 2.04 µM

## O=C(Nc1ccc(Oc2ccnc(Cl)c2)c(F)c1)c1nc(-c2ccc3ccccc3c2)cs1 [Compound 51ai, N-(4-((2-Chloropyridin-4-yl)oxy)-3-fluorophenyl)-4-(naphthalen-2-yl)thiazole-2-carboxamide]
other
  melting point: 182 to 184 °C
FHC
  IC50: > 100 µM
MKN-45
  IC50: 6.12 ± 1.38 µM
MDA-MB-231
  IC50: 30.3 ± 2.16 µM
c-Met
  IC50: 61.4 ± 4.58 nM
  fold loss of c-Met inhibitory activity compared to 51w: 2.6 fold
HT-29
  IC50: 21.5 ± 1.58 µM
A549
  IC50: 15.3 ± 2.81 µM
HUVEC
  IC50: > 100 µM

## O=C(Nc1ccc(Oc2ncnc3sccc23)c(F)c1)c1nc(-c2ccc(F)cc2)cs1 [Compound 51v, N-(3-Fluoro-4-(thieno[2,3-d]pyrimidin-4-yloxy)phenyl)-4-(4-fluorophenyl)thiazole-2-carboxamide]
other
  melting point: 154 to 156 °C
FHC
  IC50: 63.3 ± 3.35 µM
MKN-45
  IC50: 4.23 ± 0.94 µM
MDA-MB-231
  IC50: 29.1 ± 2.52 µM
c-Met
  IC50: 37.6 ± 2.88 nM
HT-29
  IC50: 19.2 ± 2.85 µM
A549
  IC50: 12.6 ± 1.83 µM
HUVEC
  IC50: 54.4 ± 4.16 µM
